Laboratory results as given in US20250122155A1, “NOVEL INDOLE DERIVATIVE, PHARMACEUTICAL COMPOSITION COMPRISING SAME, AND USE THEREOF” (MITOIMMUNE THERAPEUTICS INC., priority 2021, published 2025).

How the values were obtained:
[1] = test system: MLE-12 cells; assay: Cell death protective effect in lung epithelial cells against RSL3 (LDH); format: cell-based, rat; details: MLE-12, RSL3 1.0 μM, 24 hours
Protocol: In order to identify the protective effect on lung epithelial cells, MLE-12 cells were divided into 96-well plates by 5×10^3 and cultured for 18 to 24 hours. The compounds of Examples were diluted to final concentrations of 0.1 and 1.0 μM, treated in each well, and incubated for 20 minutes. RSL3 was treated to have final concentrations of 1.0 μM, respectively, and cultured for 24 hours. In order to identify the protective effect of each compound, the degree of LDH extracellular secretion was measured using cytotoxicity LDH assay kit [Dojindo; CK12]. Briefly, at the time when the treatment of the cells with RSL3 for 24 hours is completed, the supernatants containing the cells are taken by 70 μL and transferred to a new 96-well plate. The assay buffer included in the kit is added in an amount of 70 μL/well (the same amount as the sample) thereto, and then the plate is wrapped with a foil and the reaction is performed at room temperature for 15 minutes.

[2] = test system: NIH/3T3 cells; assay: Cell death protective effect in fibroblasts against Erastin, glutamate and RSL3 (LDH); format: cell-based, mouse; details: 24 hours
Protocol: In order to identify the protective effect on fibroblasts, NIH/3T3 cells were divided into 96-well plates by 8×10^3 and cultured for 18 to 24 hours. The compounds of Examples were diluted to final concentrations of 0.1 and 1 μM, treated in each well, and incubated for 15 to 20 minutes. Erastin, glutamate, and RSL3 were treated to have final concentrations of 3 μM, 30 mM, and 3 μM, respectively, and cultured for 24 hours. In order to identify the protective effect of each compound, the degree of LDH extracellular secretion was measured using cytotoxicity LDH assay kit [Dojindo; CK12]. Briefly, at the time when the treatment of the cells with Erastin, glutamate, and RSL3 for 24 hours is completed, the supernatants containing the cells are taken by 70 μL and transferred to a new 96-well plate. The assay buffer included in the kit is added in an amount of 70 μL/well (the same amount as the sample) thereto, and then the plate is wrapped with a foil and the reaction is performed at room temperature for 15 minutes. After observing the changed color of the sample, the stop solution was added in an amount of 35 μL/well thereto, and then the 00 inhibition value was calculated by measuring the absorbance value at a wavelength of 490 nm using an iD3 spectrophotometer.

[3] = test system: H9C2 cells; assay: Protective effect on heart cells against t-BHP (LDH release); format: cell-based; details: H9C2, t-BHP 400 μM, 2 hours, read-out: EC50 (μM), Cell Protection Effect against t-BHP in Heart Cells
Procedure, shortened: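 H9C2 cells (1.5×10^4/well, cultured 24 h) were pretreated 15–20 min with compound at 0.01–30 μM final, then exposed 2 h to 400 μM t-BHP. LDH in supernatant was measured colorimetrically at 490 nm after 30 min room-temperature reaction; EC50 derived from protection.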

[4] = test system: NRK-49F cells; assay: Cell death protective effect in renal fibroblasts against Erastin, glutamate and RSL3 (LDH); format: cell-based, rat; details: 24 hours
Protocol: (§1) In order to identify the protective effect on renal fibroblasts, NRK-49F cells were divided into 96-well plates by 1×10^4 and cultured for 18 to 24 hours. The compounds of Examples were diluted to final concentrations of 0.1 and 1 μM, treated in each well, and incubated for 15 to 20 minutes. Erastin, glutamate, and RSL3 were treated to have final concentrations of 3 μM, 75 mM, and 3 μM, respectively, and cultured for 24 hours. In order to identify the protective effect of each compound, the degree of LDH extracellular secretion was measured using cytotoxicity LDH assay kit [Dojindo; CK12]. Briefly, at the time when the treatment of the cells with Erastin, glutamate, and RSL3 for 24 hours is completed, the supernatants containing the cells are taken by 70 μl and transferred to a new 96-well plate. The assay buffer included in the kit is added in an amount of 70 μL/well (the same amount as the sample) thereto, and then the plate is wrapped with a foil and the reaction is performed at room temperature for 15 minutes.

[5] = test system: H9C2 cells; assay: Cell death protective effect in cardiac myocytes against Erastin, glutamate and RSL3 (LDH); format: cell-based, rat; details: 24 hours
Protocol: as §1, with “on cardiac cells, H9C2” for “on renal fibroblasts, NRK-49F”, “of 1” for “of 3”, “μM, 25” for “μM, 75”, “and 0.5” for “and 3”, “70 μL” for “70 μl”

[6] = NIH/3T3, Erastin 3 μM, compound 0.1 μM
[7] = NIH/3T3, Erastin 3 μM, compound 1.0 μM
[8] = NIH/3T3, Glutamate 30 mM, compound 0.1 μM
[9] = NIH/3T3, Glutamate 30 mM, compound 1.0 μM
[10] = NIH/3T3, RSL3 3 μM, compound 0.1 μM
[11] = NIH/3T3, RSL3 3 μM, compound 1.0 μM
[12] = Glutamate 75 mM, compound 0.1 μM
[13] = Glutamate 75 mM, compound 1.0 μM
[14] = H9C2, Erastin 1 μM, compound 0.1 μM
[15] = H9C2, Erastin 1 μM, compound 1.0 μM
[16] = H9C2, Glutamate 25 mM, compound 0.1 μM
[17] = H9C2, Glutamate 25 mM, compound 1.0 μM
[18] = H9C2, RSL3 0.5 μM, compound 0.1 μM
[19] = H9C2, RSL3 0.5 μM, compound 1.0 μM

EC50 [3] [µM] | Compound | inhibition (%) ([1]; compound 0.1 μM) | inhibition (%) ([1]; compound 1.0 μM) | inhibition (%) [2, 6] [%] | inhibition (%) [2, 7] [%] | inhibition (%) [2, 8] [%] | inhibition (%) [2, 9] [%] | inhibition (%) [2, 10] [%] | inhibition (%) [2, 11] [%] | inhibition (%) ([4]; Erastin 3 μM, compound 0.1 μM) | inhibition (%) ([4]; Erastin 3 μM, compound 1.0 μM) | inhibition (%) [4, 12] [%] | inhibition (%) [4, 13] [%] | inhibition (%) ([4]; RSL3 3 μM, compound 0.1 μM) | inhibition (%) ([4]; RSL3 3 μM, compound 1.0 μM) | inhibition (%) [5, 14] [%] | inhibition (%) [5, 15] [%] | inhibition (%) [5, 16] [%] | inhibition (%) [5, 17] [%] | inhibition (%) [5, 18] [%] | also measured
> 1 | COCCOCc1cc(NC2CCOCC2)c2[nH]cc(C)c2c1 [Example 50, 5-(2-methoxyethoxymethyl)-3-methyl-N-tetrahydropyran-4-yl-1H-indol-7-amine] | 0 | 56 | 0 | 8 | 99 | 100 | 100 | 100 | 3 | 99 | 4 | 73 | 16 | 18 | 16 | 18 | 0 | 49 | 7 | inhibition (%) [5, 19]: 4%
≤ 0.3 | COCCOCc1cc(NC2CCNCC2)c2[nH]c(-c3ccccc3)cc2c1 [Example 64, 5-((2-methoxyethoxy)methyl)-2-phenyl-N-(piperidin-4-yl)-1H-indol-7-amine] | 100 | 98 | 99 | 100 | 99 | 100 | 100 | 100 | 100 | 100 | 7 | 99 | 70 | 100 | 100 | 100 | 97 | 97 | 90 | inhibition (%) [5, 19]: 95%
